What was measured:
[1] = target: T1, PPAR-α (Homo sapiens, UniProt Q07869); test: PPAR-α reporter assay (GAL4 luciferase, CV-1 cells); assay type: cell-based; conditions: induction ratio of luciferase activity at 50 μM, activity without tested compound = 1, hGR-GAL4-hPPAR-α
T1 construct: expressed in transfected cells; host or cells: CV-1 (African green monkey kidney)
T1 sequence (Q07869 167-468): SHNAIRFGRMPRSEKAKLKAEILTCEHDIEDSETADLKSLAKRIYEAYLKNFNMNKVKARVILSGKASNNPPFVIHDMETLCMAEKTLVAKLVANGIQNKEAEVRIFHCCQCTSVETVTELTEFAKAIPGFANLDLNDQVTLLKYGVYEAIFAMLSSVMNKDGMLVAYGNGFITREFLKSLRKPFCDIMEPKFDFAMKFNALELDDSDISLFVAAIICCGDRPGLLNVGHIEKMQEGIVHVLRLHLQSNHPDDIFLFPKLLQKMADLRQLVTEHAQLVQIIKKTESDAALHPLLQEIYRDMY
Description: The reporter assay of PPAR (peroxisome proliferator-activated receptor)-α was conducted by using the following plasmids in accordance with the known report (Steven A. Kliwer et al., The Journal of Biological Chemistry Vol. 270, No. 22: 12953-12956, 1995).
As luciferase expressing plasmid, used was the plasmid which introduces the sequence wherein 5 yeast GAL4 binding sequences, UAS (upstream activating sequence), are tandemly connected to the upstream of the thymidine kinase promoter of pTAL-Luc (#6252-1, produced by Clontech) (UAS×5-TK-Luc) (1).
(§1) As PPAR-α receptor expressing plasmid, used was the plasmid which introduces the N-terminal domain of human GR (1-76aa), the yeast GAL4 DNA binding domain (1-147aa) and PPAR-α ligand binding domain (167-468aa) to NotI site and SalI site of pExchange-1 core vector (#211176, produced by Stratagene) (hGR-GAL4-hPPAR-α) (2). The plasmid mixed solution used in the reporter assay of PPAR-α contains above (1), (2) and plasmid pcDNA3.1(−) as a carrier in the weight ratio of 4:1:3.
The medium having the following composition was used for seeding cell line CV-1 used in the reporter assay, derived from the kidney of an African green monkey, on the plate; and for diluting the tested compounds. Used was Dulbecco modified Eagle medium (D2902 without phenol red, produced by SIGMA) to which 3.7 g/L of NaHCO3, 3.5 g/L of D-glucose and 10% v/v fetal bovine serum were added.
(§2) CV-1 cells were seeded on the 384-well white plate (781080, produced by Greiner) to become 1.5×10^4 cells/30 μL per one well. Then, gene transfer was conducted in accordance with the manual by using OPTI-MEM I (11058-021, produced by GIBCO), FuGENE6 (1-815-075, produced by Roche) and the above PPAR-α plasmid mixed solution. The incubation was conducted in a carbon-dioxide incubator at 37° C. for 6 to 8 hours. Then, a diluted tested compound was added thereto and incubated in a carbon-dioxide incubator at 37° C. for 16 to 18 hours. Britelite (6016979, produced by PerkinElmer) was further added thereto and stirred, and the luciferase activity was measured with EnVision (produced by PerkinElmer).
(§3) Specifying the luciferase activity without addition of a tested compound as 1, the induction ratio of the luciferase activity by each tested compound was calculated.

[2] = target: T2, PPAR-γ (Homo sapiens, UniProt P37231); test: PPAR-γ reporter assay (GAL4 luciferase, CV-1 cells); assay type: cell-based; conditions: induction ratio of luciferase activity at 25 μM, activity without tested compound = 1, hGR-GAL4-hPPAR-γ
T2 construct: expressed in transfected cells; host or cells: CV-1 (African green monkey kidney)
T2 sequence (P37231 204-505): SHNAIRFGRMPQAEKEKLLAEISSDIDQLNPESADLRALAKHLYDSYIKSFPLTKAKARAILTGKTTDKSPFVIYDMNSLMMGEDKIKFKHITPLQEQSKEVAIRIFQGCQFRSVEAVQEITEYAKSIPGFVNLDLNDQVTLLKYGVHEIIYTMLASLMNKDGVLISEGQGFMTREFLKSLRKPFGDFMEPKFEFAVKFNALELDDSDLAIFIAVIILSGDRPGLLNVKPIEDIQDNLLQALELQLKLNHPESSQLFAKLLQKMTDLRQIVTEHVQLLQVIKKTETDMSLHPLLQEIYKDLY
Description: The reporter assay of PPAR-γ was conducted by using the following plasmids in accordance with the known report (Steven A. Kliwer et al., The Journal of Biological Chemistry Vol. 270, No. 22: 12953-12956, 1995).
As luciferase expressing plasmid, used was the plasmid which introduces the sequence wherein 5 yeast GAL4 binding sequences, UAS, are tandemly connected to the upstream of the thymidine kinase promoter of pTAL-Luc (#6252-1, produced by Clontech) (UAS×5-TK-Luc) (1).
as §1, with “As PPAR-γ” for “As PPAR-α”, “and PPAR-γ2” for “and PPAR-α”, “domain (204-505aa)” for “domain (167-468aa)”, “Stratagene) (hGR-GAL4-hPPAR-γ)” for “Stratagene) (hGR-GAL4-hPPAR-α)”, “of PPAR-γ” for “of PPAR-α”
as §2, with “PPAR-γ” for “PPAR-α”
as §3

PPAR-α induction ratio [1] | PPAR-γ induction ratio [2] | Compound
14.4 | 6.6 | CCCCCCCCCCCC(=O)N[C@@H](Cc1ccc(Cl)cc1)C(=O)O [Example 42]
3.0 | 2.2 | CCCCCCCCCCCC(=O)N[C@@H](Cc1csc2ccccc12)C(=O)O [Example 43]
6.2 | 6.7 | CCCCCCCCCCCC(=O)NC1(C(=O)O)CCCCCC1 [Example 44]

From patent publication US7728158B2, “PPAR activity regulators” (Ajinomoto Co., Inc., priority 2006, dated 2010)
